According to patent US20100227859A1, “TRICYCLIC COMPOUNDS AS MATRIX METALLOPROTEINASE INHIBITORS” (priority 2007, published 2010):

biological target: purified human MMP-12 enzyme (Homo sapiens, UniProt P39900); assay: MMP-12 FRET assay; format: biochemical; settings: substrate 20 μM, room temperature
Procedure: Compounds according to the present teachings were tested in an MMP-12 FRET assay as follows. To each well of black polystyrene 96-well plate was added assay buffer (50 mM HEPES (pH 7.4), 100 mM NaCl, 5 mM CaCl2 and 0.005% Brij-35 (Polyoxyethyleneglycol dodecyl ether, Pierce cat#20150), purified human MMP-12 enzyme, and varied concentrations of test compounds (prepared by serial dilution of a stock solution in 100% DMSO). The plates were incubated at room temperature for 30 minutes. The enzymatic reactions were initiated by addition of a substrate, MCA-Pro-Leu-Gly-Leu-Dpa(DNP)-Ala-Arg, containing a fluorescent group (7-methoxycoumarin, MCA) and a 2,4-dinitrophenyl group (DNP), to a final concentration of 20 μM. The final DMSO concentration in the assay was 10%. The reaction was monitored for 30 minutes at room temperature and the initial rate of the cleavage reaction was determined using a fluorescence plate reader (λex: 325 nm, λem: 395 nm). Plots of the inhibitor concentration vs. the initial cleavage rate were fit to the following equation: y=Vmax*(1−(x^n/(K^n+x^n))), whereby x=inhibitor concentration, y=initial rate, Vmax=initial rate in the absence of inhibitor, n=slope factor, and K=IC50 for the inhibition curve.

purified human MMP-12 enzyme, sequence (P39900 106-470): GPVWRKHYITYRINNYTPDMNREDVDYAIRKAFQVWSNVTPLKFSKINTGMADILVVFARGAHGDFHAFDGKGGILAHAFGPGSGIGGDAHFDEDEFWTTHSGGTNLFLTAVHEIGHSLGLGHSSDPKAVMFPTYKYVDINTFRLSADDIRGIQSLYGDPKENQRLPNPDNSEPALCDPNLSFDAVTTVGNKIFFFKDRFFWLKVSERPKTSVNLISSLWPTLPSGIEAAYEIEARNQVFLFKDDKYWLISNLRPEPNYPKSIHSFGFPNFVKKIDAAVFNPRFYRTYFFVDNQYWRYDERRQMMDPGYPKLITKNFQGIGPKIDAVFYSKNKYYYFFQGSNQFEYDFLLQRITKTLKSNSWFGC

| IC50 [nM] | Structure (SMILES) |
| --- | --- |
| 5.2 | CC(C)[C@@H](NS(=O)(=O)c1ccc2oc3cc(-c4nccs4)ccc3c2c1)C(=O)O [Compound 291, (R)-3-methyl-2-(7-(thiazol-2-yl)dibenzo[b,d]furan-2-sulfonamido)butanoic acid] |
| 12 | Cc1ccc2nc(-c3ccc4oc5cc(S(=O)(=O)N[C@H](C(=O)O)C(C)C)ccc5c4c3)sc2c1 [Compound 210, (S)-3-methyl-2-(8-(6-methylbenzo[d]thiazol-2-yl)dibenzo[b,d]furan-3-sulfonamido)butanoic acid] |
| 2.4 | CC(C)[C@H](NS(=O)(=O)c1ccc2c(c1)oc1ccc(C#CCN(C)C)cc12)C(=O)O [Compound 2, (S)-2-(8-(3-(dimethylamino)prop-1-ynyl)dibenzo[b,d]furan-3-sulfonamido)-3-methylbutanoic acid] |
| < 1.5 | CCc1ccc(-c2ccc3c(c2)oc2cc(S(=O)(=O)N[C@H](C(=O)O)C(C)C)ccc23)s1 [Compound 229, (S)-2-(7-(5-ethylthiophen-2-yl)dibenzo[b,d]furan-3-sulfonamido)-3-methylbutanoic acid] |
| 1.7 | CC(C)[C@H](NS(=O)(=O)c1ccc2c(c1)oc1cc(-c3nc4ccccc4s3)ccc12)C(=O)O [Compound 226, (S)-2-(7-(benzo[d]thiazol-2-yl)dibenzo[b,d]furan-3-sulfonamido)-3-methylbutanoic acid] |
| 1.5 | CCCc1ccc(-c2ccc3c(c2)oc2ccc(S(=O)(=O)N[C@@H](C(=O)O)C(C)C)cc23)s1 [Compound 243, (R)-3-methyl-2-(7-(5-propylthiophen-2-yl)dibenzo[b,d]furan-2-sulfonamido)butanoic acid] |
| 1.9 | CC(C)[C@H](NS(=O)(=O)c1ccc2c(c1)oc1ccc(-c3ccco3)cc12)C(=O)O [Compound 37, (S)-2-(8-(furan-2-yl)dibenzo[b,d]furan-3-sulfonamido)-3-methylbutanoic acid] |
| < 1.5 | Cc1cnc(-c2ccc3c(c2)oc2cc(S(=O)(=O)N[C@H](C(=O)O)C(C)C)ccc23)s1 [Compound 234, (S)-3-methyl-2-(7-(5-methylthiazol-2-yl)dibenzo[b,d]furan-3-sulfonamido)butanoic acid] |
| 12 | CC(C)[C@@H](NS(=O)(=O)c1ccc2oc3cc(-c4cnn(Cc5ccccc5)c4)ccc3c2c1)C(=O)O [Compound 175, (R)-2-(7-(1-benzyl-1H-pyrazol-4-yl)dibenzo[b,d]furan-2-sulfonamido)-3-methylbutanoic acid] |
| 3 | CC(C)[C@H](NS(=O)(=O)c1ccc2c(c1)oc1ccc(-c3cnn(Cc4ccccc4)c3)cc12)C(=O)O [Compound 22, (S)-2-(8-(1-benzyl-1H-pyrazol-4-yl)dibenzo[b,d]furan-3-sulfonamido)-3-methylbutanoic acid] |
| 110 | CC(C)[C@H](NS(=O)(=O)c1ccc2c(c1)oc1ccc(-c3c(C(F)(F)F)n[nH]c3-c3ccccc3)cc12)C(=O)O [Compound 206, (S)-3-methyl-2-(8-(5-phenyl-3-(trifluoromethyl)-1H-pyrazol-4-yl)dibenzo[b,d]furan-3-sulfonamido)butanoic acid] |
| 9.2 | Cc1nc(-c2ccc3c(c2)oc2ccc(S(=O)(=O)N[C@@H](C(=O)O)C(C)C)cc23)no1 [Compound 139, (R)-3-methyl-2-(7-(5-methyl-1,2,4-oxadiazol-3-yl)dibenzo[b,d]furan-2-sulfonamido)butanoic acid] |
| 5.5 | CC(C)[C@H](NS(=O)(=O)c1ccc2c(c1)oc1cc(-c3noc(C4CC4)n3)ccc12)C(=O)O [Compound 187, (S)-2-(7-(5-cyclopropyl-1,2,4-oxadiazol-3-yl)dibenzo[b,d]furan-3-sulfonamido)-3-methylbutanoic acid] |
| < 1.5 | CCc1ccc(-c2ccc3c(c2)oc2ccc(S(=O)(=O)N[C@@H](C(=O)O)C(C)C)cc23)s1 [Compound 239, (R)-2-(7-(5-ethylthiophen-2-yl)dibenzo[b,d]furan-2-sulfonamido)-3-methylbutanoic acid] |
| 86 | CC(C)[C@H](NS(=O)(=O)c1ccc2c(c1)oc1ccc(-c3ncc(CN4CCN(C)CC4)s3)cc12)C(=O)O [Compound 212, (S)-3-methyl-2-(8-(5-((4-methylpiperazin-1-yl)methyl)thiazol-2-yl)dibenzo[b,d]furan-3-sulfonamido)butanoic acid] |
| 7.8 | CC(C)Cc1ncc(-c2ccc3c(c2)oc2cc(S(=O)(=O)N[C@H](C(=O)O)C(C)C)ccc23)s1 [Compound 249, (S)-2-(7-(2-isobutylthiazol-5-yl)dibenzo[b,d]furan-3-sulfonamido)-3-methylbutanoic acid] |
| 70 | CC(C)[C@@H](NS(=O)(=O)c1ccc2sc3cc(-c4ccco4)ccc3c2c1)C(=O)O [Compound 287, (R)-2-(7-(furan-2-yl)dibenzo[b,d]thiophene-2-sulfonamido)-3-methylbutanoic acid] |
| 4.6 | CC(C)[C@H](NS(=O)(=O)c1ccc2c(c1)oc1ccc(-c3nc4ccccc4o3)cc12)C(=O)O [Compound 194, (S)-2-(8-(benzo[d]oxazol-2-yl)dibenzo[b,d]furan-3-sulfonamido)-3-methylbutanoic acid] |
| < 1.5 | CCCc1ccc(-c2ccc3oc4cc(S(=O)(=O)N[C@H](C(=O)O)C(C)C)ccc4c3c2)s1 [Compound 197, (S)-3-methyl-2-(8-(5-propylthiophen-2-yl)dibenzo[b,d]furan-3-sulfonamido)butanoic acid] |
| 12 | CC(C)[C@H](NS(=O)(=O)c1ccc2c(c1)oc1cc(-c3nc4ccc(C(F)(F)F)cc4s3)ccc12)C(=O)O [Compound 236, (S)-3-methyl-2-(7-(6-(trifluoromethyl)benzo[d]thiazol-2-yl)dibenzo[b,d]furan-3-sulfonamido)butanoic acid] |
| < 1.5 | Cc1nc(C)c(-c2ccc3c(c2)oc2cc(S(=O)(=O)N[C@H](C(=O)O)C(C)C)ccc23)s1 [Compound 230, (S)-2-(7-(2,4-dimethylthiazol-5-yl)dibenzo[b,d]furan-3-sulfonamido)-3-methylbutanoic acid] |
| 220 | CC(C)[C@@H](NS(=O)(=O)c1ccc2sc3cc(-c4nccs4)ccc3c2c1)C(=O)O [Compound 285, (R)-3-methyl-2-(7-(thiazol-2-yl)dibenzo[b,d]thiophene-2-sulfonamido)butanoic acid] |
| 13 | Cc1nc(CC(C)C)sc1-c1ccc2oc3cc(S(=O)(=O)N[C@H](C(=O)O)C(C)C)ccc3c2c1 [Compound 204, (S)-2-(8-(2-isobutyl-4-methylthiazol-5-yl)dibenzo[b,d]furan-3-sulfonamido)-3-methylbutanoic acid] |
| 5.2 | CCC(C)Cn1cc(-c2ccc3c(c2)oc2ccc(S(=O)(=O)N[C@@H](C(=O)O)C(C)C)cc23)cn1 (stereo partly drawn) [Compound 170, (2R)-3-methyl-2-(7-(1-(2-methylbutyl)-1H-pyrazol-4-yl)dibenzo[b,d]furan-2-sulfonamido)butanoic acid] |
| 7.8 | CCCn1cc(-c2ccc3sc4cc(S(=O)(=O)N[C@H](C(=O)O)C(C)C)ccc4c3c2)cn1 [Compound 42, (S)-3-methyl-2-(8-(1-propyl-1H-pyrazol-4-yl)dibenzo[b,d]thiophene-3-sulfonamido)butanoic acid] |
| 82 | Cc1onc(-c2ccccc2)c1-c1ccc2oc3cc(S(=O)(=O)N[C@H](C(=O)O)C(C)C)ccc3c2c1 [Compound 161, (S)-3-methyl-2-(8-(5-methyl-3-phenylisoxazol-4-yl)dibenzo[b,d]furan-3-sulfonamido)butanoic acid] |
